According to patent publication US10526327B2, “Histone demethylase inhibitors” (CELGENE QUANTICEL RESEARCH, INC., priority 2013, dated 2020):

Columns and labels:
Jarid1B = molecular target: T1, Jarid1B (Homo sapiens, UniProt Q9UGL1); assay: Jarid1B in vitro enzyme inhibition assay (TR-FRET); assay type: biochemical
T1 construct: purchased BPS Bioscience or custom made by MolecularThroughput 50121
T1 sequence (Q9UGL1 2-751): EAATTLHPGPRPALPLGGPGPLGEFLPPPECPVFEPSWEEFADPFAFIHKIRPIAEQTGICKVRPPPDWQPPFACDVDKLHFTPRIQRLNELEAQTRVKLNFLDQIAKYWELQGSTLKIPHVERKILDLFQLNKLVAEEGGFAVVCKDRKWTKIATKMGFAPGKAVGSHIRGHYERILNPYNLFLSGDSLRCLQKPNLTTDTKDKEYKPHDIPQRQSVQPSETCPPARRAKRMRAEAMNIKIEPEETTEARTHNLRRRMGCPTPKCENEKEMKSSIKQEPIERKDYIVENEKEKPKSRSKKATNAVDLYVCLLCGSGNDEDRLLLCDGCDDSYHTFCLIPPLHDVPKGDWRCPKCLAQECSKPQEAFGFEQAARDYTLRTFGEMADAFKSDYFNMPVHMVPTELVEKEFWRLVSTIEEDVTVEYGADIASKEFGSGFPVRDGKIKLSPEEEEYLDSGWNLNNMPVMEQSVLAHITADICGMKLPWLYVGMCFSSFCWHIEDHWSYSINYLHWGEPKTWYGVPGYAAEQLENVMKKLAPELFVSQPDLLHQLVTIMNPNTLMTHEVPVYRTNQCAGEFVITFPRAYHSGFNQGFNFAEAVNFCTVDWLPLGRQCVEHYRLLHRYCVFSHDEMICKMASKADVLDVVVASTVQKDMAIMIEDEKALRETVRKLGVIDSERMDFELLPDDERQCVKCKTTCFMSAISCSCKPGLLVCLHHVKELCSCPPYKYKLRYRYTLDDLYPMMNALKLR
Source text: This assay determines the ability of a test compound to inhibit Jarid1A, Jarid1B, and JMJD2C demethylase activity. Baculovirus expressed Jarid1A (GenBank Accession #NM_001042603, AA1-1090) was purchased from BPS Bioscience (Cat#50110). Baculovirus expressed Jarid1B (GenBank Accession #NM_006618, AA 2-751) was purchased from BPS Bioscience (Cat #50121) or custom made by MolecularThroughput. Baculovirus expressed JMJD2C (GenBank Accession #BC143571, AA 2-372) was purchased from BPS Bioscience (Cat#50105).
The ability of test compounds to inhibit the activity of Jarid1B was determined in 384-well plate format under the following reaction conditions: 0.8 nM Jarid1B, 300 nM H3K4me3-biotin labeled peptide (Anaspec cat #64357), 2 μM alpha-ketoglutaric acid in assay buffer of 50 mM HEPES, pH7.3, 0.005% Brij35, 0.5 mM TCEP, 0.2 mg/ml BSA, 50 μM sodium L-ascorbate, and 2 μM ammonium iron(II) sulfate. Reaction product was determined quantitatively by TR-FRET after the addition of detection reagent Phycolink Streptavidin-allophycocyanin (Prozyme) and Europium-anti-mono-or di-methylated histone H3 lysine 4 (H3K4me1-2) antibody (PerkinElmer) in the presence of 5 mM EDTA in LANCE detection buffer (PerkinElmer) at a final concentration of 25 nM and 1 nM, respectively.
The assay reaction was initiated by the following: 2 μl of the mixture of 900 nM H3K4me3-biotin labeled peptide and 6 μM alpha-ketoglutaric acid with 2 μl of 11-point serial diluted inhibitor in 3% DMSO was added to each well of the plate, followed by the addition of 2 μl of 2.4 nM Jarid1B to initiate the reaction. The reaction mixture was incubated at room temperature for 30 minutes, and terminated by the addition of 6 μl of 5 mM EDTA in LANCE detection buffer containing 50 nM Phycolink Streptavidin-allophycocyanin and 2 nM Europium-anti-H3K4me1-2 antibody. Plates were read by EnVisionMultilabel Reader in TR-FRET mode (excitation at 320 nm, emission at 615 nm and 665 nm) after 1 hour incubation at room temperature. A ratio was calculated (665/615) for each well and fitted to determine inhibition constant (IC50).

KDM5A/B = assay: In vitro cell-based assay: immuno-blot quantification of tri-methyl H3K4 in ZR-75-1 breast cancer cells; details: 72 hours, tri-methyl H3K4 level relative to GAPDH, percent of DMSO, read-out: Cellular IC50
Source text: An assay to measure the degree of cellular inhibition of KDM5A and 5B was developed. This quantitative immuno-blotting assay measures the amount tri-methylated histone H3 at amino acid Lysine number 4, a specific substrate […] of the direct enzymatic activity of the histone demethylases KDM5A and KDM5B from extracts of the ZR-75-1 breast cancer cell line.
This assay is a fluorometric immunoassay for the quantification of tri-methyl H3K4 extracted from cells treated with test compound and is used as a measure of the cellular inhibition of KDM5A/B.
ZR-75-1 (PTEN null, ER+) breast cancer cells numbering 50,000 (ATCC) were seeded into each well of a 96-well tissue culture treated plate and then exposed to an 11 point dilution of test compound with final concentration ranges of test compound ranging from 1250 μM to 10 nM. Cells were left in the presence of test compound for 72 hours. Extracts were prepared containing all of the cellular histone material using detergent based lysis and sonication methods. These lysates were subsequently normalized for total protein content using a colorimetric bicinchonic acid assay (MicroBCA Pierce/Thermo Scientific). Normalized cell extracts were then subjected to typical immuno-blotting procedures using NuPage reagents (Life Technologies). Electrophoretically separated histones were then transferred and immobilized using polyvinylidene difluoride membrane (Immobilon-FL Millipore). The amount of tri-methylated lysine 4 of histone H3 was detected using an antibody specific to the tri-methylated state (Cell Signaling Technologies) and quantified on an infrared imager using a densitometry software package (Odyssey CLx, Image Studio, Li-Cor). This background subtracted densitometry value was reported as a ration of the GAPDH amount for that sample and then calculated as a percent of the DMSO treated sample. The software package XL-fit (IDBS) was then used to calculate a relative IC50 value for the dilution series of a given test compound according to the equation: fit=(D+((Vmax*(x^n))/((x^n)+(Km^n)))).

Compound	IC50 (Jarid1B) [nM]	IC50 (KDM5A/B) [nM]
Oc1nc(Oc2cnn(C3CCCC3)c2)nc2cnccc12 [Example 56, 2-[(1-cyclopentylpyrazol-4-yl)oxy]pyrido[3,4-d]pyrimidin-4-ol]	≤ 100	1000 to 10000
CCc1cccc(Oc2nc(O)c3ccncc3n2)c1 [Example 57, 2-(3-ethylphenoxy)pyrido[3,4-d]pyrimidin-4-ol]	≤ 100	> 10000
Oc1nc(Oc2cnn(Cc3ccccc3)c2)nc2cnccc12 [Example 66, 2-[(1-benzyl-1H-pyrazol-4-yl)oxy]pyrido[3,4-d]pyrimidin-4-ol]	≤ 100	1000 to 10000
CCOc1nc(O)c2ccnc(-c3cn(C)cn3)c2n1 [Example 69, 2-ethoxy-8-(1-methyl-1H-imidazol-4-yl)pyrido[3,4-d]pyrimidin-4-ol]	≤ 100	> 10000
Cn1cnc(-c2nccc3c(O)nc(OCC(F)(F)F)nc23)c1 [Example 70, 8-(1-methyl-1H-imidazol-4-yl)-2-(2,2,2-trifluoroethoxy)pyrido[3,4-d]pyrimidin-4-ol]	≤ 100	1000 to 10000
Cn1cnc(-c2nccc3c(O)nc(OCc4ccc(F)cc4)nc23)c1 [Example 71, 2-[(4-fluorobenzyl)oxy]-8-(1-methyl-1H-imidazol-4-yl)pyrido[3,4-d]pyrimidin-4-ol]	≤ 100	1000 to 10000
Cn1cnc(-c2nccc3c(O)nc(OCC4CC4)nc23)c1 [Example 72, 2-(cyclopropylmethoxy)-8-(1-methylimidazol-4-yl)pyrido[3,4-d]pyrimidin-4-ol]	≤ 100	1000 to 10000
Cn1cnc(-c2nccc3c(O)nc(OCCCC(F)(F)F)nc23)c1 [Example 74, 8-(1-methylimidazol-4-yl)-2-(4,4,4-trifluorobutoxy)pyrido[3,4-d]pyrimidin-4-ol]	≤ 100	100 to 1000
Cn1cnc(-c2nccc3c(O)nc(OCCO)nc23)c1 [Example 75, 2-(2-hydroxyethoxy)-8-(1-methylimidazol-4-yl)pyrido[3,4-d]pyrimidin-4-ol]	≤ 100	> 10000
Oc1nc(Oc2cnn(Cc3ccc(F)cc3)c2)nc2cnccc12 [Example 86, 2-[1-(4-fluorobenzyl)pyrazol-4-yl]oxypyrido[3,4-d]pyrimidin-4-ol]	≤ 100	1000 to 10000
Oc1nc(Oc2cnn(Cc3ccccc3F)c2)nc2cnccc12 [Example 87, 2-[1-(2-fluorobenzyl)pyrazol-4-yl]oxypyrido[3,4-d]pyrimidin-4-ol]	≤ 100	100 to 1000
CC(C)(C)OC(=O)N1CCC(n2cc(Oc3nc(O)c4ccncc4n3)cn2)CC1 [Example 88, tert-butyl 4-[4-(4-hydroxypyrido[3,4-d]pyrimidin-2-yl)oxypyrazol-1-yl]piperidine-1-carboxylate]	≤ 100	1000 to 10000
Oc1nc(Oc2cnn(C3CCNCC3)c2)nc2cnccc12 [Example 89, 2-(1-piperidin-4-ylpyrazol-4-yl)oxypyrido[3,4-d]pyrimidin-4-ol]	≤ 100	1000 to 10000
